Reference: ChEMBL document CHEMBL1201862, “PubChem BioAssay data set” (2004)
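Exposure lasted 48 hours, with cells grown in 96-well plates and compounds tested at five concentrations. GI50 marks 50% less growth.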 Calls of active or inactive are those of the source. Rule as the data show it: active = GI50 up to about 1.1 µM and inactive = higher.

Experiments:
Assay in all cases: NCI tumour cell line growth inhibition, 48 h
SK-MEL-2 = test system: SK-MEL-2
NCI-H460 = test system: NCI-H460
RXF 393 = test system: RXF 393
SN12C = test system: SN12C
KM12 = test system: KM12
HL-60 = test system: HL-60
NCI-H226 = test system: NCI-H226
DU-145 = test system: DU-145
MDA-MB-435 = test system: MDA-MB-435
HCT-15 = test system: HCT-15
PC-3 = test system: PC-3
SNB-75 = test system: SNB-75
HCC 2998 = test system: HCC 2998
SK-OV-3 = test system: SK-OV-3
MCF7 = test system: MCF7
NCI-H522 = test system: NCI-H522
SW-620 = test system: SW-620
NCI/ADR-RES = test system: NCI/ADR-RES
CCRF-CEM = test system: CCRF-CEM
Malme-3M = test system: Malme-3M

`O=C1/C(=c2\c3ccccc3n3c(=O)c4ccccc4nc23)Nc2ccccc21` [CANDIDINE] was tested, and the GI50 (SK-MEL-2) was > 100 µM (inactive), the GI50 (NCI-H460) was 43.5 µM (inactive) and the GI50 (RXF 393) was > 100 µM (inactive). For the same compound, the GI50 (SN12C) was > 100 µM (inactive), the GI50 (KM12) was > 59.7 µM (inactive) and the GI50 (HL-60) was > 10 µM (inactive). For the same compound, the GI50 (NCI-H226) was > 100 µM (inactive), the GI50 (DU-145) was > 100 µM (inactive) and the GI50 (MDA-MB-435) was 18.5 µM (inactive). For the same compound, the GI50 (HCT-15) was > 100 µM, the GI50 (PC-3) was > 100 µM (inactive) and the GI50 (SNB-75) was 25.6 µM (inactive). The GI50 (HCC 2998) was > 82.4 µM (inactive), the GI50 (SK-OV-3) was > 100 µM (inactive) and the GI50 (MCF7) was > 70.1 µM (inactive). For the same compound, the GI50 (NCI-H522) was > 100 µM (inactive), the GI50 (SW-620) was > 100 µM (inactive) and the GI50 (NCI/ADR-RES) was > 100 µM (inactive). The GI50 (CCRF-CEM) was > 100 µM (inactive) and the GI50 (Malme-3M) was 33 µM (inactive).

In the case of `Cc1ccc(C(=O)N/N=C2/C(=O)c3c4ccccc4cc4cccc2c34)cc1`, the GI50 (SK-MEL-2) is reported as 64 µM (inactive), the GI50 (NCI-H460) is reported as 15 µM (inactive) and the GI50 (RXF 393) is reported as 12.6 µM (inactive). For the same compound, the GI50 (SN12C) was 21.8 µM (inactive), the GI50 (KM12) was 3.89 µM (inactive) and the GI50 (HL-60) was 10.2 µM (inactive). For the same compound, the GI50 (NCI-H226) was > 69.3 µM (inactive), the GI50 (DU-145) was 3.44 µM (inactive) and the GI50 (MDA-MB-435) was 23.9 µM (inactive). The GI50 (HCT-15) was 20.6 µM, the GI50 (PC-3) was 25.3 µM (inactive) and the GI50 (SNB-75) was 26.7 µM (inactive). For the same compound, the GI50 (HCC 2998) was 38.8 µM (inactive), the GI50 (SK-OV-3) was 23.7 µM (inactive) and the GI50 (MCF7) was 2.3 µM (inactive). The GI50 (NCI-H522) was 18 µM (inactive), the GI50 (SW-620) was 8.71 µM (inactive) and the GI50 (NCI/ADR-RES) was 30.1 µM (inactive). For the same compound, the GI50 (CCRF-CEM) was 3.98 µM (inactive) and the GI50 (Malme-3M) was 18.8 µM (inactive).

`COc1cc(OC)c(OC)cc1/C=C\c1ccnc2ccccc12` was tested, and the GI50 (SK-MEL-2) was 0.308 µM (active), the GI50 (NCI-H460) was 0.555 µM (active) and the GI50 (RXF 393) was 0.466 µM (active). The GI50 (SN12C) was 0.622 µM (active), the GI50 (KM12) was 0.675 µM (active) and the GI50 (HL-60) was 0.344 µM (active). For the same compound, the GI50 (NCI-H226) was 0.977 µM (active), the GI50 (DU-145) was 1.01 µM (active) and the GI50 (MDA-MB-435) was 0.156 µM (active). The GI50 (HCT-15) was 0.437 µM, the GI50 (PC-3) was 0.532 µM (active) and the GI50 (SNB-75) was 0.335 µM (active). For the same compound, the GI50 (HCC 2998) was 1.02 µM (active), the GI50 (SK-OV-3) was 0.465 µM (active) and the GI50 (MCF7) was 0.372 µM (active). The GI50 (NCI-H522) was 0.333 µM (active), the GI50 (SW-620) was 0.679 µM (active) and the GI50 (NCI/ADR-RES) was 0.374 µM (active). The GI50 (CCRF-CEM) was 1.4 µM (inactive) and the GI50 (Malme-3M) was 0.7 µM (active).
